Key:
MPTP-lesioned macaques = experiment: Motor activity (total activity, high activity time and counts) in MPTP-lesioned macaques treated with URB597 and L-DOPA; assay type: in vivo, cynomolgus monkeys (Macaca fascicularis)
MPTP-lesioned marmosets [1] = experiment: Rating of parkinsonian disability, dyskinesia and psychosis in MPTP-lesioned marmosets; assay type: in vivo, common marmosets (Callithrix jacchus); settings: L-DOPA 20 mg/kg s.c. alone, summed 2-4 h
Protocol: (§1) Six common marmosets (Callithrix jacchus; female; weight, 350-500 g (Harlan, Madison, Wis., USA)) were kept under conditions of controlled temperature (25±2° C.) and a 12-hour light/dark cycle (lights on 6:30 a.m.). Animals were group housed and had access to food, fresh-fruit supplements and water ad libitum and their home cage environment was enriched with primate toys, perches and auditory stimuli. Prior to start of studies, animals were acclimatized to handling, blood collection and administration of treatments (oral syringe feeding and subcutaneous injection) as well as transfer to observation cages for assessment of behavior. A parkinsonian syndrome was induced by once-daily subcutaneous administration of MPTP hydrochloride (Sigma, Canada; 2 mg/kg base concentration in 0.9% saline) for 5 consecutive days. Following this, animals were allowed to recover for 12 weeks to allow parkinsonian symptoms to develop and stabilize. […] Treatment-related complications including dyskinesia and psychosis-like behaviors were evoked by twice-daily treatment with L-DOPA p.o. (as Prolopa®, Roche Canada, Ontario, equivalent to 15 mg/kg L-DOPA and 3.5 mg/kg benserazide) for a minimum of 30 days. […] Disord. 21:839-846; Visanji et al. (2008) Mov. Disord. 23:1922-1925; Visanji et al (2009) Neurobiol Dis. 35: 184-192]. After this time, the animals were used in several studies to evaluate potential anti-parkinsonian and anti-dyskinetic agents. A minimum period of two weeks was allowed between completing any prior study and commencing this study, a period in excess of ten half-lives since administration of any previously employed experimental drug. Throughout the course of the study, on days not requiring plasma sampling or behavioral observations, animals were treated once daily with oral L-DOPA therapy, given at 10:00 a.m. to maintain stable levels of complications. Marmosets treated with MPTP as described in this example are referred to as MPTP-lesioned marmosets.
(§2) To assess the effect of treatment on plasma FAAH substrate level, total activity, high activity time and count, data were analyzed using a parametric repeated-measures (RM) 1-way analysis of variance (ANOVA) followed by a Student Newman-Keuls Multiple Comparison post hoc test. To assess the effect of treatment on plasma L-DOPA level a paired, two-tailed t-test was used. All FAAH (AEA, OEA, PEA) subbstrate and L-DOPA plasma level data and activity data are presented as the group mean and SEM For measures of parkinsonian disability, dyskinesia and psychosis, data were analyzed via Friedman's test with Dunn's Multiple Comparison post hoc test. […] In all cases, p<0.05 was taken to represent a significant difference.
(§3) MPTP hydrochloride (Sigma, Canada) was dissolved in 0.9% NaCl sterile solution to a concentration of 0.2 mg/ml (freebase) and administered at 1 ml/kg. Maintenance L-DOPA, administered as Prolopa® capsules (Roche, Mississauga, ON, Canada) containing 50 mg L-DOPA and 12.5 mg benserazide (freebase) was dissolved in Gatorade sports beverage (The Gatorade Company, Chicago, Ill.) prior to oral administration by syringe at a volume of 10 ml/kg. On days of behavioral assessment, L-DOPA (20 mg/kg, freebase) was prepared from the methyl ester form (Sigma, Canada) in combination with benserazide hydrochloride (5 mg/kg, freebase, Sigma, Canada) dissolved in 0.9% sterile saline containing 0.1% ascorbate (Sigma, Canada) and 0.05% absolute ethanol. URB597 (Cayman Chemical, Ann Arbor, Mich.) was formulated in a vehicle containing 50% corn oil (Professional Compounding Centers of America (PCCA), Houston, Tex.) and 50% nutritional drink Ensure™ (Abbott Nutrition, Chicago, Ill.) to make the suspension palatable for marmoset oral dosing. Requisite amounts of URB597 were weighed into sterile 50 ml polypropylene tubes (for the 3, 10, 30 and 60 mg/kg doses, 12, 40, 120 and 240 mg were weighed respectively). Then, 10 ml Corn oil was added and mixed until homogenous.

MPTP-lesioned marmosets [2] = experiment: Motor activity (passive infra-red sensors: total activity, high activity counts and time) in MPTP-lesioned marmosets; assay type: in vivo, common marmosets (Callithrix jacchus)
Protocol: as §1, §2, §3

[3] = L-DOPA 20 mg/kg s.c. alone, 2-4 h, mean±SEM, n=6
[4] = L-DOPA 20 mg/kg s.c. alone, 2-4 h, p<0.001
[5] = L-DOPA 20 mg/kg s.c. alone, 2-4 h, p<0.05

N[C@@H](Cc1ccc(O)c(O)c1)C(=O)O [L-DOPA, 3,4-dihydroxyphenylalanine]
total activity counts, high activity time and counts compared to normal, unlesioned macaques (MPTP-lesioned macaques; L-DOPA p.o. (30 to 45 mg/kg), 1 to 3.5 hrs after administration): higher
total activity counts, high activity time and high activity counts compared to normal macaques (MPTP-lesioned macaques; L-DOPA p.o. alone, between 2 and 3 h after L-DOPA): significantly higher
psychosis score (median) (MPTP-lesioned marmosets [1]; IQR 0-0 as printed, n=6): 0
dyskinesia score (median) (MPTP-lesioned marmosets [1]; IQR 10-29, n=6): 20
parkinsonian disability score (median) (MPTP-lesioned marmosets [1]; maximum 432, IQR 57-111, n=6): 80
total activity counts (MPTP-lesioned marmosets [2]; L-DOPA 20 mg/kg s.c. alone (vehicle p.o.), peak dose period 2-4 h, mean±SEM, n=6): 2782±682 counts
high activity counts (MPTP-lesioned marmosets [2]; [3]): 2170±778 counts
high activity time (MPTP-lesioned marmosets [2]; [3]): 53.3 ± 15.2 min
increase in high activity time compared to normal, non-MPTP-lesioned animals (MPTP-lesioned marmosets [2]; [4]): 167%
increase in total activity compared to vehicle (s.c.)-treated, MPTP-lesioned animals (MPTP-lesioned marmosets [2]; [4]): 379%
increase in high activity counts compared to normal, non-MPTP-lesioned animals (MPTP-lesioned marmosets [2]; [5]): 120%
increase in total activity compared to non-treated, non-MPTP-lesioned (normal) animals (MPTP-lesioned marmosets [2]; [5]): 77%
period following drug administration in which total activity was significantly increased compared to vehicle (s.c.)-treated animals (MPTP-lesioned marmosets [2]; L-DOPA 20 mg/kg s.c. alone, 6 h time course, 30 min intervals): 3.5 h
